Measurements as given in US10412963B2, “Agricultural and horticultural fungicide composition and plant disease controlling method” (SDS BIOTECH K.K., priority 2016, dated 2019).

Experiments:
[1] = system: cucumber powdery mildew; experiment: Effect test on cucumber powdery mildew (potted cucumbers, spray); type: in vivo; conditions: 10 days after inoculation
From the text: A sufficient amount of a dilute solution of each wettable powder prepared in Formulation Example 1 was spread with a spray gun on cucumbers (variety: Hikari No. 3 P-type) that had been grown in a greenhouse to the third-leaf unfolding stage in a plastic pot having a diameter of 6 cm. The next day, the cucumbers were inoculated with a suspension of cucumber powdery mildew spores by misting. The cucumbers were allowed to stand in the greenhouse for 10 days, and diseased area ratios in the first leaf and the second leaf (first and second leaves from the ground) were investigated with eyes to determine a preventive value. The preventive value (%) was calculated using the following equation. Preventive value=(1−(ratio of infection zone in leaf with test compound/ratio of infection zone in control leaf))×100

[2] = system: Botrytis cinerea; experiment: Effect test on cucumber gray mold (cucumber cotyledons, paper disc); type: in vivo; conditions: 20° C., 4 days
Experimental: Cotyledons were harvested from cucumbers (variety: Hikari No. 3 P-type) that had been grown in a greenhouse for 3 weeks in a plastic pot having a diameter of 6 cm. The harvested cotyledons were placed side by side in a Tupperware container in which wetted filter paper was laid, and a paper disc having a diameter of 8 mm was placed on the center of each of the cotyledons. To each paper disc, 50 μL of a suspension of Botrytis cinerea spores (2×10^4/ml, containing 2% of sucrose and 0.2% of a yeast extract) was added, and at the same time, 50 μL of a phosphate buffer (40 mM, pH 7.2) having dissolved therein each wettable powder prepared in Formulation Example 1 at a target concentration was added. A lid was placed on the Tupperware container, which was kept at 20° C. for 4 days. After that, diseased areas were investigated with eyes to determine a preventive value. The preventive value (%) was calculated using the following equation. Preventive value=(1−(diameter of infection zone in leaf with test compound/diameter of infection zone in control leaf))×100

## surfactin
[1]; single chemical 1 ppm
  Preventive value (%): 0%
[1]; single chemical 10 ppm
  Preventive value (%): 0%
[2]; single chemical 1 ppm
  Preventive value (%): 0%
[2]; single chemical 10 ppm
  Preventive value (%): 0%

## iso-C14 [Ile^7]surfactin
[1]; single chemical 1 ppm
  Preventive value (%): 0%
[1]; single chemical 10 ppm
  Preventive value (%): 0%
[2]; single chemical 1 ppm
  Preventive value (%): 0%
[2]; single chemical 10 ppm
  Preventive value (%): 0%

## C[C@@H](N)C(=O)N[C@H]1COC(O)[C@H](N)[C@H]1O (stereo partly drawn) [Prumycin, 4-N-D-alanyl-2,4-diamino-2,4-dideoxyarabinose]
[1]; single chemical 0.5 ppm
  Preventive value (%): 7%
[1]; single chemical 1 ppm
  Preventive value (%): 21%
[1]; single chemical 2 ppm
  Preventive value (%): 44%
[1]; single chemical 5 ppm
  Preventive value (%): 69%
[1]; single chemical 10 ppm
  Preventive value (%): 95%
[2]; single chemical 0.5 ppm
  Preventive value (%): 6%
[2]; single chemical 1 ppm
  Preventive value (%): 45%
[2]; single chemical 2 ppm
  Preventive value (%): 55%
[2]; single chemical 5 ppm
  Preventive value (%): 95%
[2]; single chemical 10 ppm
  Preventive value (%): 100%
